Data on two compounds can be found in patent publication US7291734B2, “N-sulfonylaminothiazole” (Novartis AG, priority 2002, dated 2007).

Broadly, the IC50 is the concentration at which inhibition is half-maximal. The low end stands for inhibition by little substance, the high end for a need for much substance.

The target of test [1] is T1, steroid sulfatase (Homo sapiens, UniProt P08842).
T1 sequence (P08842 22-583): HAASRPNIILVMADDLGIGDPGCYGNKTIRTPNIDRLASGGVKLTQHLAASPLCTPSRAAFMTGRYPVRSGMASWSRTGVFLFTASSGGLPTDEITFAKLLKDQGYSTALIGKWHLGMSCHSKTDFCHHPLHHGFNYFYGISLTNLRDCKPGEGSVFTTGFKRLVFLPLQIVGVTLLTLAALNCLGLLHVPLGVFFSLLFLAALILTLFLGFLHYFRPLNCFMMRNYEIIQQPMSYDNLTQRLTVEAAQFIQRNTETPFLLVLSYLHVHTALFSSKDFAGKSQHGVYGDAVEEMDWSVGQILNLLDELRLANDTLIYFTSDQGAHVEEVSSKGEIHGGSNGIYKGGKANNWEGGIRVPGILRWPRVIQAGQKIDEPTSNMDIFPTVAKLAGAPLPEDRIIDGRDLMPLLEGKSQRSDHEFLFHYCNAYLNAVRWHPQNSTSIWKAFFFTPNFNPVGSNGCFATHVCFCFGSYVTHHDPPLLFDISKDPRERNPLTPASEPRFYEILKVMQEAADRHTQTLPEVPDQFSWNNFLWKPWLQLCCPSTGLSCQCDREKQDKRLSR
In words: Assay of human steroid sulfatase (4-methylumbelliferyl sulfate cleavage, fluorescence). Format: biochemical. Details: Human placenta is obtained freshly after delivery and stripped of membranes and connective tissues; from tissue; host or cells: human placenta (microsomes, Triton X-100 extract, chromatographically purified). To be noted: purified human placental steroid sulfatase; 4-methylumbelliferyl sulfate substrate; 37° C., 1 hour. Here is the method:
Human placenta is obtained freshly after delivery and stripped of membranes and connective tissues. For storage, the material is frozen at −70° C. After thawing, all further steps are carried out at 4° C., while pH values are adjusted at 20° C. 400 g of the tissue is homogenized in 1.2 l of buffer A (50 mM Tris-HCl, pH 7.4, 0.25 M sucrose). The homogenate obtained is centrifuged at 10,000×g for 45 minutes. The supernatant is set aside and the pellet obtained is re-homogenized in 500 ml of buffer A. After centrifugation, the two supernatants obtained are combined and subjected to ultracentrifugation (100,000×g, 1 hour). The pellet obtained is resuspended in buffer A and centrifugation is repeated. […]
It is known that purified human steroid sulfatase not only is capable to cleave steroid sulfates, but also readily cleaves aryl sulfates such as 4-methylumbelliferyl sulfate which is used in the present test system as an activity indicator. […]
Plates are incubated at 37° C. for 1 hour. […] Fluorescence intensity is determined in a Titertek Fluoroskan II instrument with λex=355 nm and λem=460 nm. […]
[formula] wherein I100 is the intensity observed in the absence of inhibitor and s is a slope factor. Estrone sulfamate is used as a reference compound and its IC50 value is determined in parallel to all other test compounds. […]

Test [2] concerns the target T1, steroid sulfatase. In words: Assay using human skin homogenate (DHEAS cleavage). To be noted: human cadaver skin homogenate; [3H]DHEAS substrate; 18 hrs at 37° C. Details: Frozen specimens of human cadaver skin (about 100 mg per sample) are minced into small pieces; from tissue; host or cells: human cadaver skin, minced, in Triton X-100 buffer. Format: biochemical. Here is the method: Frozen specimens of human cadaver skin (about 100 mg per sample) are minced into small pieces (about 1×1 mm) using sharp scissors. The pieces obtained are suspended in ten volumes (w/w) of buffer (20 mM Tris-HCl, pH 7.5), containing 0.1% Triton X-100. Test compounds (e.g. compounds of the present invention or compounds for use in the present invention) are added at graded concentrations from stock solutions in ethanol or DMSO. Second, DHEAS as the substrate is added (1 μC/ml [^3H]DHEAS, specific activity: about 60 Cl/mmol, and 20 μM unlabeled DHEAS). Samples are incubated for 18 hrs at 37° C. At the end of the incubation period, 50 μl of 1 M Tris, pH 10.4 and 3 ml of toluene are added. A 1-ml aliquot of the organic phase is removed and subjected to liquid scintillation counting. The determined dpm-values in the aliquots are converted to nmol of DHEA cleaved per g of skin per hour.

As to `CC12CCC3c4ccc(OS(N)(=O)=O)cc4CCC3C1CCC2=O` (centres unmarked) [estrone sulfamate], the IC50 against steroid sulfatase [1] is about 60 nM. “2-[2-(3,5-Bis-trifluoromethyl-benzenesulfonylamino)-6,7-dihydro-4H-thiazolo-[5,4-c]pyridin-yl]4-trifluoromethyl-benzamide [Example 1]” displayed an IC50 at steroid sulfatase [2] of 160 nM.
